Results from US20250215029A1 (Recludix Pharma, Inc., priority 2022, published 2025).

The compounds below were run against T1, pY705-STAT3 in PBMC (Homo sapiens, UniProt P40763) (assay: MSD-pSTAT-PBMC Assay (pSTAT3, IL-6 stimulated)). Settings: PBMC, compound 3 hrs, then 10 ng/mL IL-6 for 10 min; Table 115; read-out: STAT3.
T1 construct: Cryopreserved Peripheral Blood Mononuclear Cells (PBMC) are from AllCells; host or cells: cryopreserved PBMC
T1 sequence (P40763 whole entry): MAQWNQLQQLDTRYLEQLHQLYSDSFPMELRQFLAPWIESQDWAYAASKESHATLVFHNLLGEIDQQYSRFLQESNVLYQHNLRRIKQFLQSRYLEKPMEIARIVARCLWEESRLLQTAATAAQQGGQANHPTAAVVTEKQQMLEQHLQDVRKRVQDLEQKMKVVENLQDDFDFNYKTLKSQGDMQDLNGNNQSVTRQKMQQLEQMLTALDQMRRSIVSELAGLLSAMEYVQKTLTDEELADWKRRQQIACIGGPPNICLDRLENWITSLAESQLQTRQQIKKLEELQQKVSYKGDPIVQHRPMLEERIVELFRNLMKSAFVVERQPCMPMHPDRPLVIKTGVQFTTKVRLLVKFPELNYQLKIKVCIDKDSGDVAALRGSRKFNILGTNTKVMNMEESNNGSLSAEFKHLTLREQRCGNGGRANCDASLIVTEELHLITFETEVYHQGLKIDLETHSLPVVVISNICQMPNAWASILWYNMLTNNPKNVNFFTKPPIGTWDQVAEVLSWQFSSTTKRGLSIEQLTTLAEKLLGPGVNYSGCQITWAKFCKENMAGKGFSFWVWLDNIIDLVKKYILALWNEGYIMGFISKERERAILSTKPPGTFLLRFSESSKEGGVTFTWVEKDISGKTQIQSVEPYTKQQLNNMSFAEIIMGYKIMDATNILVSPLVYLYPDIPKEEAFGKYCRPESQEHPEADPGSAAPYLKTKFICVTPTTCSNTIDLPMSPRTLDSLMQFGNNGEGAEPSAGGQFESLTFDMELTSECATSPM
Format: cell-based
Method in brief: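 pY705-STAT3 was detected electrochemiluminescently on total-STAT3 capture plates, using lysates of human PBMCs given compound for 3 h and then IL-6 (10 ng/mL, 10 min). Values were background-subtracted against unstimulated wells and set relative to DMSO. IC50 was fitted with variable slope.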
With CC(C)C[C@H](NP(=O)(Cc1ccc2sc(C(=O)N[C@H]3CCC[C@H]4CC[C@@H](C(=O)N5CC(c6cccnc6)C5)N4C3=O)cc2c1)Oc1ccccc1)C(=O)OCc1ccccc1 (stereo partly drawn) [Compound 390, benzyl (((2-(((3S,6S,9aS)-5-oxo-3-(3-(pyridin-3-yl)azetidine-1-carbonyl)octahydro-1H-pyrrolo[1,2-a]azepin-6-yl)carbamoyl)benzo [b]thiophen-5-yl)methyl)(phenoxy)phosphoryl)-L-leucinate] the IC50 was 100 to 1000 nM. CCCOC(=O)[C@H](C)N[P@](=O)(Oc1ccccc1)[C@@H](F)c1ccc2sc(C(=O)N[C@H]3CCC[C@H]4CC[C@@H](C(=O)N5CC(c6cnccc6N6CCOCC6)C5)N4C3=O)cc2c1 (single isomer, unassigned) [Compound 1047] gave an IC50 of 100 to 1000 nM. CC[C@H](NP(=O)(Cc1ccc2sc(C(=O)N[C@H]3CCC[C@H]4CC[C@@H](C(=O)N5CC(c6cccnc6)C5)N4C3=O)cc2c1)Oc1ccccc1)C(=O)OCC(C)C (stereo partly drawn) [Compound 947, isobutyl (2S)-2-((((2-(((3S,6S,9aS)-5-oxo-3-(3-(pyridin-3-yl)azetidine-1-carbonyl)octahydro-1H-pyrrolo[1,2-a]azepin-6-yl)carbamoyl)benzo [b]thiophen-5-yl)methyl)(phenoxy)phosphoryl)amino) butanoate] was tested, and the IC50 was under 100 nM. CCCOC(=O)[C@H](C)NP(=O)(Oc1ccccc1)[C@H](F)c1ccc2sc(C(=O)N[C@H]3CCC[C@H]4CC[C@@H](C(=O)N5CC(c6cncnc6N(C)C)C5)N4C3=O)cc2c1 (stereo partly shown) [Compound 1068] gave an IC50 of under 100 nM. COc1ccncc1C1CN(C(=O)[C@@H]2CC[C@@H]3CCC[C@H](NC(=O)c4cc5cc([C@@H](F)[P@@](=O)(N[C@@H](C)C(=O)OC(C)C)Oc6ccccc6)ccc5s4)C(=O)N32)C1 (single isomer, unassigned) [Compound 1053] was tested, and the IC50 was under 100 nM. With CCCOC(=O)[C@H](C)NP(=O)(Cc1ccc2sc(C(=O)N[C@H]3CCC[C@H]4CC[C@@H](C(=O)N5CC(c6cccnc6)C5)N4C3=O)cc2c1)OCC(C)(F)F (stereo partly drawn) [Compound 437, propyl ((2,2-difluoropropoxy)((2-(((3S,6S,9aS)-5-oxo-3-(3-(pyridin-3-yl)azetidine-1-carbonyl)octahydro-1H-pyrrolo[1,2-a]azepin-6-yl)carbamoyl)benzo [b]thiophen-5-yl)methyl)phosphoryl)-L-alaninate] the IC50 was 100 to 1000 nM. O=C(N[C@H]1CCC[C@H]2CC[C@@H](C(=O)N3CC(c4cccnc4)C3)N2C1=O)c1cc2cc(CP(=O)(N[C@H]3CCOC3=O)Oc3ccccc3)ccc2s1 (stereo partly drawn) [Compound 398, phenyl P-((2-(((3S,6S,9aS)-5-oxo-3-(3-(pyridin-3-yl)azetidine-1-carbonyl)octahydro-1H-pyrrolo[1,2-a]azepin-6-yl)carbamoyl)benzo [b]thiophen-5-yl)methyl)-N-((S)-2-oxotetrahydrofuran-3-yl)phosphonamidate] showed an IC50 of over 3000 nM. COC[C@H](NP(=O)(Cc1ccc2sc(C(=O)N[C@H]3CCC[C@H]4CC[C@@H](C(=O)N5CC(c6cccnc6)C5)N4C3=O)cc2c1)Oc1ccccc1)C(=O)OC(C)C (stereo partly drawn) [Compound 392, isopropyl O-methyl-N-(((2-(((3S,6S,9aS)-5-oxo-3-(3-(pyridin-3-yl)azetidine-1-carbonyl)octahydro-1H-pyrrolo[1,2-a]azepin-6-yl)carbamoyl)benzo [b]thiophen-5-yl)methyl)(phenoxy)phosphoryl)-L-serinate] was tested, and the IC50 was 100 to 1000 nM. CCCOC(=O)[C@H](C)NP(=O)(Oc1ccccc1)[C@H](F)c1ccc2sc(C(=O)N[C@H]3CCC[C@H]4CC[C@@H](C(=O)N5CC(c6cnccc6OCC)C5)N4C3=O)cc2c1 (stereo partly drawn) [Compound 484, propyl (((S)-(2-(((3S,6S,9aS)-3-(3-(4-ethoxypyridin-3-yl)azetidine-1-carbonyl)-5-oxooctahydro-1H-pyrrolo[1,2-a]azepin-6-yl)carbamoyl)benzo [b]thiophen-5-yl)fluoromethyl) (phenoxy)phosphoryl)-L-alaninate] gave an IC50 of under 100 nM. CCCOC(=O)[C@H](C)N[P@@](=O)(Oc1ccccc1)[C@H](F)c1ccc2sc(C(=O)N[C@H]3CCC[C@H]4CC[C@@H](C(=O)N5CC(c6cnccc6C)C5)N4C3=O)cc2c1 (single isomer, unassigned) [Compound 1049] was tested, and the IC50 was under 100 nM. Work on O=C(SCCOP(=O)(OCCSC(=O)c1ccccc1)C(F)(F)c1ccc2sc(C(=O)N[C@H]3CCC[C@H]4CC[C@@H](C(=O)N5CC(c6cccnc6)C5)N4C3=O)cc2c1)c1ccccc1 [Compound 970, S,S′-((((difluoro(2-(((3S,6S,9aS)-5-oxo-3-(3-(pyridin-3-yl)azetidine-1-carbonyl)octahydro-1H-pyrrolo[1,2-a]azepin-6-yl)carbamoyl)benzo [b]thiophen-5-yl)methyl)-phosphoryl)bis(oxy))bis(ethane-2,1-diyl)) dibenzothioate] yielded an IC50 of under 100 nM. CC(C)OC(=O)[C@H](C)NP(=O)(Oc1ccccc1)C(F)c1ccc2sc(C(=O)N[C@H]3CCC[C@H]4CC[C@@H](C(=O)N5CC(c6cnccc6F)C5)N4C3=O)cc2c1 (stereo partly drawn) [Compound 972, isopropyl ((fluoro(2-(((3S,6S,9aS)-3-(3-(4-fluoropyridin-3-yl)azetidine-1-carbonyl)-5-oxooctahydro-1H-pyrrolo[1,2-a]azepin-6-yl)carbamoyl)benzo [b]thiophen-5-yl)methyl) (phenoxy)phosphoryl)-L-alaninate] gave an IC50 of under 100 nM. With CCCOC(=O)[C@H](COC)NP(=O)(Cc1ccc2sc(C(=O)N[C@H]3CCC[C@H]4CC[C@@H](C(=O)N5CC(c6cnccc6N(C)C)C5)N4C3=O)cc2c1)Oc1ccccc1 (stereo partly drawn) [Compound 1017, propyl N-(((2-(((3S,6S,9aS)-3-(3-(4-(dimethylamino)pyridin-3-yl)azetidine-1-carbonyl)-5-oxooctahydro-1H-pyrrolo[1,2-a]azepin-6-yl)carbamoyl)benzo [b]thiophen-5-yl)methyl)(phenoxy)phosphoryl)-O-methyl-L-serinate] the IC50 was under 100 nM. Compound CCCOC(=O)[C@H](CC)NP(=O)(Cc1ccc2sc(C(=O)N[C@H]3CCC[C@H]4CC[C@@H](C(=O)N5CC(c6cccnc6)C5)N4C3=O)cc2c1)Oc1ccccc1 (stereo partly drawn) [Compound 296, propyl (2S)-2-((((2-(((3S,6S,9aS)-5-oxo-3-(3-(pyridin-3-yl)azetidine-1-carbonyl)octahydro-1H-pyrrolo[1,2-a]azepin-6-yl)carbamoyl)benzo [b]thiophen-5-yl)methyl)(phenoxy)phosphoryl)amino) butanoate] has an IC50 of under 100 nM. CCCOC(=O)[C@H](C)NP(=O)(Oc1ccccc1)[C@@H](F)c1ccc2sc(C(=O)N[C@H]3CCC[C@H]4CC[C@@H](C(=O)N5CC(c6cncc(F)c6O)C5)N4C3=O)cc2c1 (stereo partly drawn) [Compound 1060, propyl (((R)-fluoro(2-(((3S,6S,9aS)-3-(3-(5-fluoro-4-hydroxypyridin-3-yl)azetidine-1-carbonyl)-5-oxooctahydro-1H-pyrrolo[1,2-a]azepin-6-yl)carbamoyl)benzo [b]thiophen-5-yl)methyl)(phenoxy)phosphoryl)-L-alaninate] showed an IC50 of 100 to 1000 nM. Work on CCCOC(=O)[C@H](C)N[P@@](=O)(Oc1ccccc1)[C@@H](F)c1ccc2sc(C(=O)N[C@H]3CCC[C@H]4CC[C@@H](C(=O)N5CC(c6cccnc6)C5)N4C3=O)cc2c1 [Compound 447] yielded an IC50 of under 100 nM.
